Data from patent publication US20080248503A1, “Methods of Screening Compounds to Predict Toxicity and Residual Proliferative and Differentiation Capacity of the Lympho-Hematopoietic System” (priority 2005, published 2008).
Where two headings read alike, the source gives them in different places.

Experiments:
[1] = test system: human CFC-GEMM
From the text: (§1) Depending on the type and size of the HALO kit used, all of the culture components required, with the exception of the cells, are included. A typical HALO kit contains the 3 component mixes required to culture cells: • 1. Serum component mix (Mix 1): contains fetal bovine serum (FBS), bovine serum albumin (BSA), transferring and insulin. • 2. Methyl cellulose mix (Mix 2): contains methylcellulose and alph-thioglycerol. • 3. Growth factor mix (Mix 3): contains the type and number of growth factors depending on the cell population being stimulated. • 4. Target cells as prepared in step 1 above: different cell types are available from peripheral blood, bone marrow, or umbilical cord blood (humans) procured from human, non-human primate, dog, rat, or mouse. • Methyl cellulose provided: Methyl cellulose is a viscous, water soluble, semi-solid medium for immobilizing cells. The amount of methyl cellulose provided is for the number of 96-well plates determined by the kit. However, if dispensed carefully, there is sufficient methyl cellulose so that several smaller experiments can be performed using the plate(s) provided. • Dispensing individual component mixes and reagents: A repeater pipette may be used which uses a positive-displacement syringe is used to dispense the methyl cellulose mix. • Dispensing the master mix: Once all the component mixes have been added together, use a repeater pipette to dispense the master mix into individual wells. Using normal syringes with needles may result in inaccurate dispensing and greater variation between replicate wells. • Number of replicates performed: At least 4 replicates per culture point are preferred. Plate configuration: The configuration of the 96-well plate for an experiment is arbitrary. However, the number of replicates and the way in which the reagents required to measure luminescence are added, will determine the plate configuration. For example, if performing 4 or 8 replicates per culture point, we recommend configuring the plate in columns, that is, A1 to DI and EI to HI etc. for quadruplicate cultures and A1 to HI, A2 to 112 etc. for 8-replicate cultures are possible. If performing 6 or 12 replicates, we recommend configuring the plate, in rows, that is, A1-A6 and A7 to A12 for 6 replicates and A1-A12, BL to—813 for 12 replicates are possible. If performing column replicates, addition of the ATP releasing reagent and ATP luminescence-monitoring reagent can be performed using an 8-channel pipette from left to right across the plate. If performing row replicates, an 8- or 12-channel pipette can be used to dispense the reagents from the top to the bottom of the plate. To calculate the quantities of reagents required: • 1. Determine the-number of sample categories required for testing and the number of replicates for each sample. • 2. Multiply the number of sample categories by the number of replicates to obtain the number of wells to be used.
(§2) Before adding the target cells, ensure that a single cell suspension has been prepared. • 6. Mix the contents of the tube vigorously to obtain a homogenous master mix. • 7. To ensure that as little master mix as possible remains on the walls of the tube perform a quick spin in a centrifuge to 500 rpm and then let the centrifuge spin down. […] Dispense 100 μl of the reagent master mix into each of the replicate wells. This can be performed with a syringe and needle, but a repeater pipette is recommended for ease of use, reproducibility and to reduce variation. • 9. Transfer the culture plate to a 37 Celsius, fully humidified incubator with an atmosphere of 5% CO2. If possible, use an incubator gassed with 95% nitrogen in order to reduce the atmospheric oxygen concentration of 5% O2 since this helps increase the plating efficiency. • 10.
(§3) The addition of ATP releasing reagent and ATP luminescence-monitoring reagent is performed is the same manner as that for ATP. • 1.

[2] = test system: mouse HPP-SP
From the text: as §1, §2, §3

[3] = test system: mouse CFC-GEMM
From the text: as §1, §2, §3

[4] = test system: lymphopoietic cell populations
From the text: as §1, §2, §3

[5] = test system: human HPP-SP
From the text: as §1, §2, §3

[6] = test system: progenitor cell populations; assay: HALO 7-population hemotoxicology, progenitor cell populations (hematopoietic lineages); type: cell-based
Experimental: (§4) To calculate the quantities of reagents required: • 1.
(§5) (See (iv) Adhesive Plate Covering Film above). • 3. […] Repeat this procedure a total of 4 times. Mixing is very important. • 4.
(§6) Luminescence is measured in relative luminescence units or RLU.

[7] = test system: mouse T-CFC; assay: HALO 7-population hemotoxicology, mouse T-CFC; type: cell-based
Experimental: as §4, §5, §6

[8] = test system: mouse B-CFC; assay: HALO 7-population hemotoxicology, mouse B-CFC; type: cell-based
Experimental: as §4, §5, §6

[9] = test system: CFC-GEMM stem cells; assay: HALO 7-population hemotoxicology, CFC-GEMM; type: cell-based; settings: species not stated
Experimental: as §4, §5, §6

[10] = test system: primitive and mature stem cell populations; assay: HALO 7-population hemotoxicology, primitive and mature stem cell populations; type: cell-based; settings: FIG. 17A
Experimental: as §4, §5, §6

[11] = test system: HPP-SP stem cells; assay: HALO 7-population hemotoxicology, HPP-SP; type: cell-based; settings: species not stated
Experimental: as §4, §5, §6

[12] = test system: BFU-E; assay: HALO 7-population hemotoxicology, BFU-E (erythropoietic lineage); type: cell-based
Experimental: as §4, §5, §6

[13] = test system: human PBMNCs cultured under BFU-E-stimulating conditions; assay: HALO apoptosis measurement (ADP:ATP ratio) of PBMNCs under BFU-E-stimulating conditions; type: cell-based
Experimental: Fresh human PBMNCs were cultured under BFU-E-stimulating conditions, together with 3 concentrations of DOX, namely 1 ng/ml (low), 10 ng/ml (medium) and 100 ng/ml (high) as per a typical HALO test procedure. Replicate plates were used so that the effects of DOX could be examined at 2 time points, namely days 3 and 7. At each time point, using the APOGLOW™ detection kit (Cambrex BioScience), ATP releasing reagent and ATP luminescence-monitoring reagent were added and the luminescence read immediately. A second luminescence reading was taken when the nadir ATP value occurred. At this point an ADP converting reagent (ADP-CR) was then added, which converts ADP to ATP and the luminescence measured when the conversion reached a plateau. From these 3 measurements ADP-.ATP ratio was determined. FIG. 15A and 15B show the mean RLU values for each of the DOX concentrations measured at the 2 time points. […]
Cell proliferation and apoptosis can actually be performed in a single read by performing HALO as described above, but then instead of measuring only ATP, adenosine diphosphate (ADP) is also measured, as shown in FIGS. 15 and 16. […]
In the HALO methods that form the basis of the kits of the present invention, ATP is released from the cells using ATP releasing reagent and a 15 min incubation. Thereafter, the ATP luminescence-monitoring reagent is added and the plates read immediately. […]

[14] = test system: human PBMNCs cultured under BFU-E-stimulating conditions; assay: HALO cell proliferation (luminescence) of PBMNCs under BFU-E-stimulating conditions; type: cell-based; settings: days 3 and 7
Experimental: Fresh human PBMNCs were cultured under BFU-E-stimulating conditions, together with 3 concentrations of DOX, namely 1 ng/ml (low), 10 ng/ml (medium) and 100 ng/ml (high) as per a typical HALO test procedure. Replicate plates were used so that the effects of DOX could be examined at 2 time points, namely days 3 and 7. At each time point, using the APOGLOW™ detection kit (Cambrex BioScience), ATP releasing reagent and ATP luminescence-monitoring reagent were added and the luminescence read immediately. A second luminescence reading was taken when the nadir ATP value occurred. At this point an ADP converting reagent (ADP-CR) was then added, which converts ADP to ATP and the luminescence measured when the conversion reached a plateau. From these 3 measurements ADP-.ATP ratio was determined. FIG. 15A and 15B show the mean RLU values for each of the DOX concentrations measured at the 2 time points. […] On day 3, the increase in ADP:ATP ratio is due to apoptosis of cells with low proliferative capacity.

[15] = test system: mouse hematopoietic lineages; type: cell-based
Experimental: as §4, §5, §6

[16] = test system: human hematopoietic lineages; assay: HALO 7-population hemotoxicology, human hematopoietic lineages; type: cell-based
Experimental: as §4, §5, §6

## [Na+].[Na+].[O]=[Cr](=[O])([O-])[O][Cr](=[O])(=[O])[O-] [sodium dichromate]
[1]
  effect on human CFC-GEMM: inhibited
[2]
  effect on mouse HPP-SP: inhibited
[3]
  effect on mouse CFC-GEMM: inhibited
[4]
  effect on lymphopoietic cells / lymphopoietic lineages: inhibition
[5]
  effect on human HPP-SP: inhibited
[6]
  effect on progenitor cells / hematopoietic lineages: inhibition

## Nc1ccc(N)cc1 [p-phenelenediamine]
[7]
  effect on mouse T-CFC: decrease
[2]; mouse
  effect on mouse HPP-SP: decrease
[8]
  effect on mouse B-CFC: decrease

## c1ccccc1 [benzene]
[9]
  effect on CFC-GEMM stem cells: acts at the CFC-GEMM level
[6]
  effect on progenitor cells / hematopoietic lineages: hematopoietic suppression

## CCn1cc(C(=O)O)c(=O)c2ccc(C)nc21 [naladixic acid]
[4]; T-CFC & B-CFC
  effect on lymphopoietic cells / lymphopoietic lineages: No demonstrable effect
[6]
  effect on progenitor cells / hematopoietic lineages: No demonstrable effect
[10]
  effect on stem cells: No demonstrable effect

## O=C(N[C@H](CO)[C@H](O)c1ccc([N+](=O)[O-])cc1)C(Cl)Cl [chloramphenicol]
[9]
  effect on CFC-GEMM stem cells: no effect
[4]; T-CFC & B-CFC
  effect on lymphopoietic cells / lymphopoietic lineages: stimulation
[11]
  effect on HPP-SP stem cells: Stimulation
[12]; erythropoietic lineage
  effect on erythroid elements: decrease
[12]; species not stated
  effect on BFU-E: specifically inhibited

## COc1cccc2c1C(=O)c1c(O)c3c(c(O)c1C2=O)C[C@@](O)(C(=O)CO)C[C@@H]3O[C@H]1C[C@H](N)[C@H](O)[C@H](C)O1 [DOX, doxorubicin]
[13]; day 3
  effect on ADP:ATP ratio: increase
[13]; day 7
  apoptosis of BFU-E and immediate progeny: induced into apoptosis
[14]; 1 ng/ml (low)
  effect on mean RLU (luminescence): little or no effect
[14]; 10 ng/ml (medium)
  effect on mean RLU (luminescence): decrease the luminescence
[14]; 100 ng/ml (high)
  effect on mean RLU (luminescence): decrease the luminescence

## CN(C)C=O [N,N-dimethylformamide]
[7]
  effect on mouse T-CFC: stimulation
[15]
  effect on mouse hematopoietic lineages: effected
[2]; mouse
  effect on mouse HPP-SP: stimulated
[5]; human
  effect on human HPP-SP: effected

## [Cl][Cd][Cl] [cadmium chloride]
[15]
  effect on mouse hematopoietic lineages: decrease
[1]; human
  effect on human CFC-GEMM: decrease
[2]; mouse
  effect on mouse HPP-SP: decrease
[3]; mouse
  effect on mouse CFC-GEMM: no effect
[4]; T-CFC & B-CFC
  effect on lymphopoietic cells / lymphopoietic lineages: decrease
[5]; human
  effect on human HPP-SP: decrease
[16]
  effect on human hematopoietic lineages: decrease
